Reference: patent US12139520B2 (priority 2020, dated 2024)
pEC50: −log10 of the molar value. Numbered stars: 1 amine (or outer) side, 2 acyl side, 3 side chain; on linkers, the order of the positions; unused ones are H or OH. Bridge positions count the residues as written; N and C are the ends. Peptide text beside a SMILES is read from it. * marks the point of attachment. C20 diacid = O=C(O)CCCCCCCCCCCCCCCCCCC(=O)*; γGlu = O=C(O)[C@H](CCC(=O)[*:2])N[*:1]

Molecular target: T1, hAMY3 receptor (Homo sapiens, UniProt O60896+P30988)
T1 sequence (P30988 25-474): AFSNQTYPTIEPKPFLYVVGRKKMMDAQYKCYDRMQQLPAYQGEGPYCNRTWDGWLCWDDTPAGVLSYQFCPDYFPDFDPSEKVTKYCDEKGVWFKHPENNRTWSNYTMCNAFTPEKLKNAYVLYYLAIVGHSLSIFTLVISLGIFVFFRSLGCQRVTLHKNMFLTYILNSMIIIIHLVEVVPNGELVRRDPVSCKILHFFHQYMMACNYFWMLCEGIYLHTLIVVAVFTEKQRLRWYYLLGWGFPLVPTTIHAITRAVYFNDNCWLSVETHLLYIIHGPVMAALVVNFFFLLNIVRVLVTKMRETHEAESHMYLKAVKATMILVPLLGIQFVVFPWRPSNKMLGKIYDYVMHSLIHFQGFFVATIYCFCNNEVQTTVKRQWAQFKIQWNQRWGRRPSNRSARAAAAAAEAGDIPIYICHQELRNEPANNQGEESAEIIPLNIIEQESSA
T1 sequence (O60896 24-148 partner): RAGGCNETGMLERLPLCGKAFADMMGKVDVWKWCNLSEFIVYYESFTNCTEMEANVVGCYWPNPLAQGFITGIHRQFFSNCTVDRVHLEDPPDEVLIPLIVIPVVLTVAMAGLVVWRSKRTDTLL
Assay: cAMP assay for in vitro receptor activation, hAMY3-R
Assay type: cell-based
Conditions: cAMP assay, hAMY3 receptor; read-out: hAMY3R EC50
Outline: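 Receptor activation was measured as cAMP accumulation in a monoclonal cell line stably overexpressing hAMY3. Stimulation with graded doses lasted 30 min at room temperature in the presence of 0.5 mM IBMX, with human amylin as positive control.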

Compound	pEC50
CC[C@H](C)[C@H](NC(=O)[C@H](CCCCN)NC(=O)[C@H](CO)NC(=O)[C@H](CCCNC(=N)N)NC(=O)[C@@H]1CCCN1C(=O)[C@H](C)NC(=O)[C@@H](NC(=O)[C@H](CC(N)=O)NC(=O)[C@H](CC(=O)O)NC(=O)[C@H](CCCCN)NC(=O)[C@H](CC(=O)O)NC(=O)[C@H](CCCCN)NC(=O)[C@H](CC(=O)O)NC(=O)[C@@H](NC(=O)[C@H](Cc1ccccc1)NC(=O)[C@H](CCC(N)=O)NC(=O)[C@@H](NC(=O)[C@H](CC(C)C)NC(=O)[C@H](Cc1ccccc1)NC(=O)[C@H](CC(N)=O)NC(=O)[C@H](C)NC(=O)[C@H](CC(C)C)NC(=O)[C@H](CCCNC(=N)N)NC(=O)[C@H](CCC(N)=O)NC(=O)[C@@H](NC(=O)[C@H](C)NC(=O)[C@@H]1CSSC[C@H](NC(=O)[C@H](CCCCN)NC(=O)CC[C@H](NC(=O)CCCCCCCCCCCCCCCCCCC(=O)O)C(=O)O)C(=O)N[C@@H](CC(N)=O)C(=O)N[C@@H](Cc2ccccc2)C(=O)N[C@@H](C)C(=O)N[C@@H]([C@@H](C)O)C(=O)N1)[C@@H](C)O)C(C)C)[C@@H](C)O)C(C)C)C(=O)NCC(=O)N1CCC[C@H]1C(=O)N[C@@H](CCC(N)=O)C(=O)NCC(=O)N[C@@H](Cc1ccc(O)cc1)C(N)=O [compound 389] ({C20 diacid-γGlu}-KCNFATCATQRLANFLVQFTDKDKDNVAPRSKIGPQGY-NH2; disulfide 2-7)	10.35
CC[C@H](C)[C@H](NC(=O)[C@H](CCCCN)NC(=O)[C@@H](NC(=O)[C@H](CCCNC(=N)N)NC(=O)[C@@H]1CCCN1C(=O)[C@H](C)NC(=O)[C@@H](NC(=O)[C@H](CC(N)=O)NC(=O)[C@H](CC(=O)O)NC(=O)[C@H](CCCCN)NC(=O)[C@H](CC(=O)O)NC(=O)[C@H](CCCCN)NC(=O)[C@H](CC(=O)O)NC(=O)[C@@H](NC(=O)[C@H](Cc1ccccc1)NC(=O)[C@H](CCC(N)=O)NC(=O)[C@H](Cc1ccc(O)cc1)NC(=O)[C@H](CC(C)C)NC(=O)[C@H](Cc1ccccc1)NC(=O)[C@H](Cc1c[nH]cn1)NC(=O)[C@H](C)NC(=O)[C@H](CC(C)C)NC(=O)[C@H](CCCNC(=N)N)NC(=O)[C@H](CCC(N)=O)NC(=O)[C@@H](NC(=O)[C@@H](NC(=O)[C@@H]1CSSC[C@H](NC(=O)CNC(=O)CC[C@H](NC(=O)CCCCCCCCCCCCCCCCCCC(=O)O)C(=O)O)C(=O)N[C@@H](CCCNC(=N)N)C(=O)N[C@@H](Cc2ccccc2)C(=O)NCC(=O)N[C@@H]([C@@H](C)O)C(=O)N1)[C@@H](C)O)C(C)C)[C@@H](C)O)C(C)C)[C@@H](C)O)C(=O)NCC(=O)N1CCC[C@H]1C(=O)N[C@@H](CCC(N)=O)C(=O)NCC(=O)N[C@@H](Cc1ccc(O)cc1)C(N)=O [compound 390] ({C20 diacid-γGlu}-GCRFGTCTVQRLAHFLYQFTDKDKDNVAPRTKIGPQGY-NH2; disulfide 2-7)	10.32
